Experimental data taken from patent US20090258883A1, “1H-Indole-Pyridinecarboxamide and 1H-Indole-Piperidinecarboxamide Compounds” (LES LABORATOIRES SERVIER, priority 2005, published 2009).
Marks after values point to notes of the source that are not given here.

Biological target: 5HT receptors (type 5HT2A) (Homo sapiens, UniProt P28223)
Assay: Affinity for receptors, displacement of labelled specific ligand: 5HT2A
Format: binding
Conditions: concentration 10^−5 M

Sequence of 5HT receptors (type 5HT2A) (P28223 whole entry): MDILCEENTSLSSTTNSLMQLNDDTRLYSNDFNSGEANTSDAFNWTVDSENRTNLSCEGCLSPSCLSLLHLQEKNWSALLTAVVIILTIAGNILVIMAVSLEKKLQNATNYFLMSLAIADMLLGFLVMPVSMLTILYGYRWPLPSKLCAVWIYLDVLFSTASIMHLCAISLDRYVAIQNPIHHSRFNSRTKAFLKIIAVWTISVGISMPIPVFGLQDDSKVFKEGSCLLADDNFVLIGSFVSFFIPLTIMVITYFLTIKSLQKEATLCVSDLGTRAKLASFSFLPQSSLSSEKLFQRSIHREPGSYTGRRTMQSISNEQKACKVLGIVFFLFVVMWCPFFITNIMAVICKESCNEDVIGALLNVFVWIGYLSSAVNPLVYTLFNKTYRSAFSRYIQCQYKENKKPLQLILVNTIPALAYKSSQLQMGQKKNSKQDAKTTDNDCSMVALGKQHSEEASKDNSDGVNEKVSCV

Compound	inhibition at 10 µM
CN1CCC=C(C(=O)Nn2ccc3cc(F)ccc32)C1 [Example 7, N-(5-fluoro-1H-indol-1-yl)-1-methyl-1,2,5,6-tetrahydropyridine-3-carboxamide]	< 10%

Same assay, conditions: concentration 10^−7 M

Compound	inhibition at 0.1 µM
CN1CCC=C(C(=O)Nn2ccc3cc(F)ccc32)C1 [Example 7, N-(5-fluoro-1H-indol-1-yl)-1-methyl-1,2,5,6-tetrahydropyridine-3-carboxamide]	< 10%

Test system: tyrosine hydroxylase (TH) protein
Assay: Induction of tyrosine hydroxylase (TH) in LC, SN and VTA of the mouse brain
Format: in vivo, Balb/C mouse
Conditions: LC
Source text: A search is made among the compounds for those which are capable of bringing about an increase in the tyrosine hydroxylase (TH) protein in the locus coeruleus (LC), substantia nigra (SN) and ventral tegmental area (VTA) of the brain of the Balb/C mouse. The animals used are consanguinal male mice of the pure Balb/C strain (Charles River Laboratories) aged 6 weeks at the time of treatment.
The mice are given a single injection, by the intraperitoneal route, of the compound under test, dissolved in 0.04M HCl solution (corresponding control: 0.04M HCl), if the compound is sufficiently soluble, or in olive oil 90%/DMSO 10% (corresponding control: olive oil 90%/DMSO 10%) for compounds that are insoluble in an aqueous medium. The volume injected is 100 μl. The test groups comprise 10 animals.
Three days after the injection of each compound, all the animals are sacrificed by decapitation. The brains are removed and then frozen in an isopentane solution at −30° C. for 45 seconds and subsequently stored at −80° C.
Serial coronal sections 20 microns thick are then taken using a cryomicrotome. Each structure of interest is then sampled along the posterior-anterior axis of the brain by taking sections at 80-micron spacings in the case of the LC and at 80- or 160-micron spacings in the case of the VTA and SN. The limits of those structures are those described in the atlas of Franklin and Paxinos. The total proteins of each of those sections are transferred by direct collection of the sections to a nitrocellulose filter (Millipore). The amounts of TH present in each sample are measured by immunochemistry, fluorimetric detection and image analysis.

Compound	TH induction in the LC, in words
CN1CCC=C(C(=O)Nn2ccc3cc(F)ccc32)C1 [Example 7, N-(5-fluoro-1H-indol-1-yl)-1-methyl-1,2,5,6-tetrahydropyridine-3-carboxamide]	induce TH only in the LC

Same assay, conditions: LC section 1 (posterior-to-anterior), i.p. 20 mg/kg, three days after single injection, relative to mean value of control group

Compound	amount of TH in LC section 1
CN1CCC=C(C(=O)Nn2ccc3cc(F)ccc32)C1 [Example 7, N-(5-fluoro-1H-indol-1-yl)-1-methyl-1,2,5,6-tetrahydropyridine-3-carboxamide]	113%

Same assay, conditions: LC section 2, i.p. 20 mg/kg, three days after single injection, relative to mean value of control group

Compound	amount of TH in LC section 2
CN1CCC=C(C(=O)Nn2ccc3cc(F)ccc32)C1 [Example 7, N-(5-fluoro-1H-indol-1-yl)-1-methyl-1,2,5,6-tetrahydropyridine-3-carboxamide]	139* %

Same assay, conditions: LC section 3, i.p. 20 mg/kg, three days after single injection, relative to mean value of control group

Compound	amount of TH in LC section 3
CN1CCC=C(C(=O)Nn2ccc3cc(F)ccc32)C1 [Example 7, N-(5-fluoro-1H-indol-1-yl)-1-methyl-1,2,5,6-tetrahydropyridine-3-carboxamide]	112%

Same assay, conditions: LC section 4, i.p. 20 mg/kg, three days after single injection, relative to mean value of control group

Compound	amount of TH in LC section 4
CN1CCC=C(C(=O)Nn2ccc3cc(F)ccc32)C1 [Example 7, N-(5-fluoro-1H-indol-1-yl)-1-methyl-1,2,5,6-tetrahydropyridine-3-carboxamide]	119%

Same assay, conditions: LC section 5, i.p. 20 mg/kg, three days after single injection, relative to mean value of control group

Compound	amount of TH in LC section 5
CN1CCC=C(C(=O)Nn2ccc3cc(F)ccc32)C1 [Example 7, N-(5-fluoro-1H-indol-1-yl)-1-methyl-1,2,5,6-tetrahydropyridine-3-carboxamide]	138** %

Same assay, conditions: LC section 6, i.p. 20 mg/kg, three days after single injection, relative to mean value of control group

Compound	amount of TH in LC section 6
CN1CCC=C(C(=O)Nn2ccc3cc(F)ccc32)C1 [Example 7, N-(5-fluoro-1H-indol-1-yl)-1-methyl-1,2,5,6-tetrahydropyridine-3-carboxamide]	122%

Same assay, conditions: LC section 7, i.p. 20 mg/kg, three days after single injection, relative to mean value of control group

Compound	amount of TH in LC section 7
CN1CCC=C(C(=O)Nn2ccc3cc(F)ccc32)C1 [Example 7, N-(5-fluoro-1H-indol-1-yl)-1-methyl-1,2,5,6-tetrahydropyridine-3-carboxamide]	141** %

Same assay, conditions: LC section 8, i.p. 20 mg/kg, three days after single injection, relative to mean value of control group

Compound	amount of TH in LC section 8
CN1CCC=C(C(=O)Nn2ccc3cc(F)ccc32)C1 [Example 7, N-(5-fluoro-1H-indol-1-yl)-1-methyl-1,2,5,6-tetrahydropyridine-3-carboxamide]	131* %

Same assay, conditions: LC section 9, i.p. 20 mg/kg, three days after single injection, relative to mean value of control group

Compound	amount of TH in LC section 9
CN1CCC=C(C(=O)Nn2ccc3cc(F)ccc32)C1 [Example 7, N-(5-fluoro-1H-indol-1-yl)-1-methyl-1,2,5,6-tetrahydropyridine-3-carboxamide]	96%

Same assay, conditions: LC section 10, i.p. 20 mg/kg, three days after single injection, relative to mean value of control group

Compound	amount of TH in LC section 10
CN1CCC=C(C(=O)Nn2ccc3cc(F)ccc32)C1 [Example 7, N-(5-fluoro-1H-indol-1-yl)-1-methyl-1,2,5,6-tetrahydropyridine-3-carboxamide]	125%

Same assay, conditions: LC section 11, i.p. 20 mg/kg, three days after single injection, relative to mean value of control group

Compound	amount of TH in LC section 11
CN1CCC=C(C(=O)Nn2ccc3cc(F)ccc32)C1 [Example 7, N-(5-fluoro-1H-indol-1-yl)-1-methyl-1,2,5,6-tetrahydropyridine-3-carboxamide]	106%

Same assay, conditions: LC total, i.p. 20 mg/kg, three days after single injection, relative to mean value of control group

Compound	amount of TH, LC, total
CN1CCC=C(C(=O)Nn2ccc3cc(F)ccc32)C1 [Example 7, N-(5-fluoro-1H-indol-1-yl)-1-methyl-1,2,5,6-tetrahydropyridine-3-carboxamide]	123** %

Same assay, conditions: substantia nigra, single i.p. injection, relative to mean value of control group

Compound	TH induction in the SN
CN1CCC=C(C(=O)Nn2ccc3cc(F)ccc32)C1 [Example 7, N-(5-fluoro-1H-indol-1-yl)-1-methyl-1,2,5,6-tetrahydropyridine-3-carboxamide]	88* %

Same assay, conditions: ventral tegmental area, single i.p. injection, relative to mean value of control group

Compound	TH induction in the VTA
CN1CCC=C(C(=O)Nn2ccc3cc(F)ccc32)C1 [Example 7, N-(5-fluoro-1H-indol-1-yl)-1-methyl-1,2,5,6-tetrahydropyridine-3-carboxamide]	94%

Biological target: dopaminergic receptors (type D1) (Homo sapiens, UniProt P21728)
Assay: Affinity for receptors, displacement of labelled specific ligand: D1
Format: binding
Conditions: concentration 10^−5 M

Sequence of dopaminergic receptors (type D1) (P21728 whole entry): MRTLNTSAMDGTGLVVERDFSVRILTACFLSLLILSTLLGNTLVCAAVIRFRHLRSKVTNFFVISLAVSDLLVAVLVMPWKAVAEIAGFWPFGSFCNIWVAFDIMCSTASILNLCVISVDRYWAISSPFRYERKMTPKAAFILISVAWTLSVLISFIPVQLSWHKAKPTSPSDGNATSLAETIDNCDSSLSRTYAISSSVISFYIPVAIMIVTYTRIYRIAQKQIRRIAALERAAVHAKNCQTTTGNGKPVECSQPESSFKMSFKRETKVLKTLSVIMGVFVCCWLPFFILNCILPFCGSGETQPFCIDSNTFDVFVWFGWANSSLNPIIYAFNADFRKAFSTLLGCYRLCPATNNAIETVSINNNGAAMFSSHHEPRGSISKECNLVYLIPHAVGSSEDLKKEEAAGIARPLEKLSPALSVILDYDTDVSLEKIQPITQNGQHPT

Compound	inhibition at 10 µM
CN1CCC=C(C(=O)Nn2ccc3cc(F)ccc32)C1 [Example 7, N-(5-fluoro-1H-indol-1-yl)-1-methyl-1,2,5,6-tetrahydropyridine-3-carboxamide]	< 10%

Same assay, conditions: concentration 10^−7 M

Compound	inhibition at 0.1 µM
CN1CCC=C(C(=O)Nn2ccc3cc(F)ccc32)C1 [Example 7, N-(5-fluoro-1H-indol-1-yl)-1-methyl-1,2,5,6-tetrahydropyridine-3-carboxamide]	< 10%

Test system: confluent endothelial cells from bovine capillaries
Assay: Predicted crossing of the blood-brain barrier (BBB)
Format: in vitro ADME
Design: key: high; intermediate; low
Conditions: 20 μM in upper compartment, filter with bovine capillary endothelial cells, 10-60 minutes, LC-MS-MS
Procedure: The substances are incubated at 20 μM in the upper compartment of a double container, the upper compartment being separated from the lower compartment either solely by a polycarbonate filter or by the same filter covered with confluent endothelial cells from bovine capillaries. Evaluation of the permeability kinetics is carried out by means of LC-MS-MS quantification of the unchanged substance in the lower compartment after 10, 20, 30, 40 and 60 minutes.
The results are given in the form of the categories: high, intermediate, low.

Compound	degree of crossing of the BBB (category)
CN1CCC=C(C(=O)Nn2ccc3cc(F)ccc32)C1 [Example 7, N-(5-fluoro-1H-indol-1-yl)-1-methyl-1,2,5,6-tetrahydropyridine-3-carboxamide]	high

Biological target: dopaminergic receptors (type D2) (Homo sapiens, UniProt P14416)
Assay: Affinity for receptors, displacement of labelled specific ligand: D2
Format: binding
Conditions: concentration 10^−5 M

Sequence of dopaminergic receptors (type D2) (P14416 whole entry): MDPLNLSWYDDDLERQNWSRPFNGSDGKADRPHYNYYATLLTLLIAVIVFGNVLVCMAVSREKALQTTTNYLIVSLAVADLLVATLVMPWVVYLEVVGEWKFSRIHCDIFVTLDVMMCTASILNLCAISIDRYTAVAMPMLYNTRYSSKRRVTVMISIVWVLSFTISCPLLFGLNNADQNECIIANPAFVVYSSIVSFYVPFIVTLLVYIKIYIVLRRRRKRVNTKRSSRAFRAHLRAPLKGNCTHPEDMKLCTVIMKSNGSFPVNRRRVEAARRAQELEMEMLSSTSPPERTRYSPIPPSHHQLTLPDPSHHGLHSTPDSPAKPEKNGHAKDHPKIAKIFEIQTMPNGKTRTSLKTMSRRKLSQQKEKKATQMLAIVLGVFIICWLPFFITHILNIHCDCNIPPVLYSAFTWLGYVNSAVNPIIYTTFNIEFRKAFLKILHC

Compound	inhibition at 10 µM
CN1CCC=C(C(=O)Nn2ccc3cc(F)ccc32)C1 [Example 7, N-(5-fluoro-1H-indol-1-yl)-1-methyl-1,2,5,6-tetrahydropyridine-3-carboxamide]	< 10%

Same assay, conditions: concentration 10^−7 M

Compound	inhibition at 0.1 µM
CN1CCC=C(C(=O)Nn2ccc3cc(F)ccc32)C1 [Example 7, N-(5-fluoro-1H-indol-1-yl)-1-methyl-1,2,5,6-tetrahydropyridine-3-carboxamide]	< 10%
